# Biological target: full-length recombinant human FYN A (Homo sapiens (Human), UniProt P06241)
# Assay: ADP-Glo Kinase Assay of FYN kinase inhibition
# Assay type: biochemical
# Settings: primary screen, initial compounds
# Procedure, shortened: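 ADP-Glo read-out of peptide phosphorylation after 90 min RT with 12.5 pmol ATP and 100 pg 12-mer substrate. Enzyme was N-GST full-length human FYN A from insect cells, 3 pg, pre-incubated 30 min with compound, 10 points from 10 μM top, 3-fold steps; IC50 from curve.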
# Sequence of full-length recombinant human FYN A (P06241 whole entry): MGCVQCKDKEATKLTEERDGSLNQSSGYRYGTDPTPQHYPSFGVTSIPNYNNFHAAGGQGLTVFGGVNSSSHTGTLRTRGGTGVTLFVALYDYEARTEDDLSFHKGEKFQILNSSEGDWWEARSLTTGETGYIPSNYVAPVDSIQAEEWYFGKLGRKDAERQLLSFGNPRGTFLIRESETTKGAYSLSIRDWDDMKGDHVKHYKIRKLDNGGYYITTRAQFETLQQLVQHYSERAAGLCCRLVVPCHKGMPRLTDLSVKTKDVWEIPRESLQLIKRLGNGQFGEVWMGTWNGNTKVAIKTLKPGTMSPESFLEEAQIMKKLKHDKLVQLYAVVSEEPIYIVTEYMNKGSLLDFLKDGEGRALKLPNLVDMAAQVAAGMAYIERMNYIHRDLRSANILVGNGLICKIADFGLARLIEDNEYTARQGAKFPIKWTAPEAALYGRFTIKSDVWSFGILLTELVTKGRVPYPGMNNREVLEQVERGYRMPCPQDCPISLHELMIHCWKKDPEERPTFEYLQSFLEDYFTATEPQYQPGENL
row,IC50 [µM],Compound
1,0.983,"CC(=O)Nc1ccc(-c2ccc3ncc(-c4cccc(C(=O)NCCN(C)C)c4)n3n2)cc1 [Compound 461, 3-[6-(4-acetamidophenyl)imidazo[1,2-b]pyridazin-3-yl]-N-(2-dimethylamino-ethyl)benzamide]"
2,0.835,"COc1cc(-c2cnc3ccc(-c4cccc(OC(F)(F)F)c4)nn23)ccc1O [Compound 462, 2-methoxy-4-[6-[3-(trifluoro-methoxy)phenyl]imidazo[1,2-b]pyridazin-3-yl]phenol]"
3,0.816,"CN(C)CCNC(=O)c1cccc(-c2cnc3ccc(-c4cccc(CO)c4)nn23)c1 [Compound 463, N-(2-dimethylamino-ethyl)-3-[6-[3-(hydroxymethyl)phenyl]imidazo [1,2-b]pyridazin-3-yl]benzamide]"
4,3.07,"NC(=O)c1ccc(-c2cnc3ccc(Cc4ccc(F)c(F)c4)nn23)cc1 [Compound 464, 4-[6-[(3,4-difluorophenyl)methyl]imidazo [1,2-b]pyridazin-3-yl]benzamide]"
5,3.17,"CC(=O)Nc1cccc(-c2ccc3ncc(-c4cccc(C(=O)NCCN(C)C)c4)n3n2)c1 [Compound 465, 3-[6-(3-acetamidophenyl)imidazo[1,2-b]pyridazin-3-yl]-N-(2-dimethylamino-ethyl)benzamide]"
6,1.08,"COc1cc(-c2cnc3ccc(-c4cccc(C(F)(F)F)c4)nn23)ccc1O [Compound 466, 2-methoxy-4-[6-[3-(trifluoro-methyl)phenyl]imidazo[1,2-b]pyridazin-3-yl]phenol]"
7,2.67,"COc1cncc(-c2cnc3ccc(Cc4ccccc4)nn23)c1 [Compound 467, 6-benzyl-3-(5-methoxy-3-pyridyl)imidazo [1,2-b]pyridazine]"
8,3.1,"Cc1cccc(Cc2ccc3ncc(-c4ccc(C(N)=O)cc4)n3n2)c1 [Compound 468, 4-[6-(m-tolylmethyl)imidazo[1,2-b]pyridazin-3-yl]benzamide]"
9,2.14,"COc1ccccc1-c1ccc2ncc(-c3cccc(C(=O)NCCN(C)C)c3)n2n1 [Compound 469, N-(2-dimethylamino-ethyl)-3-[6-(2-methoxyphenyl)imidazo[1,2-b]pyridazin-3-yl]benzamide]"
10,19.2,"CN(C)CCNC(=O)c1cccc(-c2cnc3ccc(-c4cccc(Oc5ccccc5)c4)nn23)c1 [Compound 470, N-(2-dimethylamino-ethyl)-3-[6-(3-phenoxyphenyl)imidazo[1,2-b]pyridazin-3-yl]benzamide]"
11,1.89,"Oc1cccc(-c2cnc3ccc(C4CC4)nn23)c1 [Compound 471, 3-(6-cyclo-propylimidazo[1,2-b]pyridazin-3-yl)phenol]"
12,0.281,"COc1cc(-c2cnc3ccc(-c4cccc(F)c4)nn23)ccc1O [Compound 472, 4-[6-(3-fluoro-phenyl)imidazo [1,2-b]pyridazin-3-yl]-2-methoxy-phenol]"
13,4.42,"COc1cncc(-c2cnc3ccc(Cc4ccc(F)cc4)nn23)c1 [Compound 473, 6-[(4-fluoro-phenyl)methyl]-3-(5-methoxy-3-pyridyl)imidazo [1,2-b]pyridazine]"
14,2.14,"O=C(NCCO)c1cccc(-c2ccc3ncc(-c4ccc(CO)cc4)n3n2)c1 [Compound 475, N-(2-hydroxyethyl)-3-[3-[4-(hydroxymethyl)phenyl]imidazo [1,2-b]pyridazin-6-yl]benzamide]"
15,0.223,"COc1cc(-c2cnc3ccc(-c4cccc(C(N)=O)c4)nn23)ccc1O [Compound 476, 3-[3-(4-hydroxy-3-methoxy-phenyl)imidazo [1,2-b]pyridazin-6-yl]benzamide]"
16,1.8,"Cc1cccc(Cc2ccc3ncc(-c4cnn(C)c4)n3n2)c1 [Compound 477, 3-(1-methylpyrazol-4-yl)-6-(m-tolylmethyl) imidazo[1,2-b]pyridazine]"
17,0.629,"CC(=O)c1cccc(-c2cnc3ccc(-c4cccc(C(=O)NCCO)c4)nn23)c1 [Compound 478, 3-[3-(3-acetylphenyl)imidazo[1,2-b]pyridazin-6-yl]-N-(2-hydroxyethyl) benzamide]"
18,3.23,"OCc1ccc(-c2cnc3ccc(Cc4ccccc4)nn23)cc1 [Compound 479, [4-(6-benzylimidazo [1,2-b]pyridazin-3-yl)phenyl] methanol]"
19,2.09,"COc1cc(-c2cnc3ccc(Cc4ccc(F)cc4)nn23)ccc1O [Compound 480, 4-[6-[(4-fluorophenyl)methyl]imidazo [1,2-b]pyridazin-3-yl]-2-methoxy-phenol]"
20,30,"O=C(NCCO)c1cccc(-c2ccc3ncc(-c4cccc(Cl)c4)n3n2)c1 [Compound 483, 3-[3-(3-chlorophenyl)imidazo[1,2-b]pyridazin-6-yl]-N-(2-hydroxyethyl) benzamide]"
21,2.17,"Cc1cccc(Cc2ccc3ncc(-c4cccc(C(N)=O)c4)n3n2)c1 [Compound 484, 3-[6-(m-tolylmethyl)imidazo[1,2-b]pyridazin-3-yl]benzamide]"
22,3.97,"CC(=O)c1cccc(-c2cnc3ccc(Cc4ccccc4)nn23)c1 [Compound 485, 1-[3-(6-benzylimidazo [1,2-b]pyridazin-3-yl)phenyl] ethanone]"

row,IC50 [µM],Compound
1,3.64,"Nc1ccc(-c2cnc3ccc(Cc4ccccc4)nn23)cn1 [Compound 486, 5-(6-benzylimidazo [1,2-b]pyridazin-3-yl)pyridin-2-amine]"
2,3.88,"CN(C)CCNC(=O)c1cccc(-c2cnc3ccc(-c4ccoc4)nn23)c1 [Compound 487, N-(2-dimethylamino-ethyl)-3-[6-(3-furyl)imidazo [1,2-b]pyridazin-3-yl]benzamide]"
3,14.9,"CNC(=O)c1cccc(-c2ccc3ncc(-c4ccc(CO)cc4)n3n2)c1 [Compound 488, 3-[3-[4-(hydroxymethyl)phenyl]imidazo [1,2-b]pyridazin-6-yl]-N-methyl-benzamide]"
4,1.39,"COc1ccccc1-c1n[nH]c2nccc(-c3ccc(N4CCOCC4)cc3)c12 [Compound 489, 4-[4-[3-(2-methoxyphenyl)-1H-pyrazolo[3,4-b]pyridin-4-yl]phenyl] morpholine]"
5,1.28,"COc1ccccc1-c1n[nH]c2nccc(-c3ccc(F)c(Cl)c3)c12 [Compound 490, 4-(3-chloro-4-fluoro-phenyl)-3-(2-methoxy-phenyl)-1H-pyrazolo[3,4-b]pyridine]"
6,2.93,"COc1ccc(-c2ccnc3[nH]nc(-c4ccccc4OC)c23)cn1 [Compound 491, 3-(2-methoxyphenyl)-4-(6-methoxy-3-pyridyl)-1H-pyrazolo[3,4-b]pyridine]"
7,6.43,"COc1ncc(-c2ccnc3[nH]nc(-c4ccccc4OC)c23)cn1 [Compound 492, 3-(2-methoxyphenyl)-4-(2-methoxy-pyrimidin-5-yl)-1H-pyrazolo[3,4-b]pyridine]"
8,3.86,"CN(C)C(=O)c1ccc(-c2ccnc3[nH]nc(-c4cccc(F)c4)c23)cc1 [Compound 493, 4-[3-(3-fluorophenyl)-1H-pyrazolo[3,4-b]pyridin-4-yl]-N,N-dimethyl-benzamide]"
9,11.2,"CN(C)C(=O)c1ccc(-c2ccnc3[nH]nc(-c4ccsc4)c23)cc1 [Compound 494, N,N-dimethyl-4-[3-(3-thienyl)-1H-pyrazolo[3,4-b]pyridin-4-yl]benzamide]"
10,8.89,"CC(=O)Nc1ccc(-c2ccnc3[nH]nc(C4CC4)c23)cc1 [Compound 495, N-[4-(3-cyclopropyl-1H-pyrazolo[3,4-b]pyridin-4-yl)phenyl] acetamide]"
11,18,"Nc1cccc(-c2ccnc3[nH]nc(-c4ccncc4)c23)c1 [Compound 496, 3-[3-(4-pyridyl)-1H-pyrazolo[3,4-b]pyridin-4-yl]aniline]"
12,3.88,OCc1ccc(-c2ccnc3[nH]nc(-c4cccc(F)c4)c23)cc1 [Compound 497]
13,2.67,"COc1ccccc1-c1n[nH]c2nccc(-c3ccsc3)c12 [Compound 498, 3-(2-methoxyphenyl)-4-(3-thienyl)-1H-pyrazolo[3,4-b]pyridine]"
14,2.02,"COc1cc(-c2n[nH]c3nccc(-c4ccc(NC(C)=O)cc4)c23)cc(OC)c1OC [Compound 499, N-[4-[3-(3,4,5-trimethoxy-phenyl)-1H-pyrazolo[3,4-b]pyridin-4-yl]phenyl] acetamide]"
15,1.13,"COc1ccccc1-c1n[nH]c2nccc(/C=C/c3ccccc3)c12 [Compound 500, 3-(2-methoxyphenyl)-4-[(E)-styryl]-1H-pyrazolo[3,4-b]pyridine]"
16,1.35,"COc1ccccc1-c1n[nH]c2nccc(-c3cccc(F)c3)c12 [Compound 501, 4-(3-fluorophenyl)-3-[2-methoxy-phenyl)-1H-pyrazolo[3,4-b]pyridine]"
17,1.48,"COc1ccccc1-c1n[nH]c2nccc(-c3ccc(C(N)=O)cc3)c12 [Compound 502, 4-[3-(2-methoxyphenyl)-1H-pyrazolo[3,4-b]pyridin-4-yl]benzamide]"
18,7.11,"OCc1ccc(-c2ccnc3[nH]nc(-c4ccccc4)c23)cc1 [Compound 503, [4-(3-phenyl-1H-pyrazolo[3,4-b]pyridin-4-yl)phenyl] methanol]"
19,0.852,"c1ccc(-c2n[nH]c3nccc(-c4cn[nH]c4)c23)cc1 [Compound 504, 3-phenyl-4-(1H-pyrazol-4-yl)-1H-pyrazolo[3,4-b]pyridine]"
20,20.9,"COc1cc(-c2n[nH]c3nccc(-c4ccc(C(C)C)cc4)c23)cc(OC)c1OC [Compound 505, 4-(4-isopropylphenyl)-3-(3,4,5-trimethoxy-phenyl)-1H-pyrazolo[3,4-b]pyridine]"
21,30,"Clc1cccc(-c2ccnc3[nH]nc(C4CC4)c23)c1 [Compound 506, 4-(3-chlorophenyl)-3-cyclopropyl-1H-pyrazolo[3,4-b]pyridine]"
22,4.85,"COc1ccccc1-c1n[nH]c2nccc(-c3cccc(C(=O)NCCN(C)C)c3)c12 [Compound 507, N-(2-dimethylamino-ethyl)-3-[3-(2-methoxyphenyl)-1H-pyrazolo[3,4-b]pyridin-4-yl]benzamide]"

row,Compound,IC50 [µM]
1,"Cn1cc(-c2cnc3ccc(Cc4ccc(F)cc4)nn23)cn1 [Compound 481, 6-[(4-fluorophenyl)methyl]-3-(1-methylpyrazol-4-yl)imidazo [1,2-b]pyridazine]",1.3

# From patent publication US10688093B2, “Methods, compositions, and uses of novel Fyn kinase inhibitors” (priority 2015, dated 2020)
